Measurements reported in ChEMBL document CHEMBL1201862, “PubChem BioAssay data set” (2004).
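Compound exposure: 48 hours, 5 concentrations, 96-well plates. GI50 marks 50% less growth.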 Active and inactive are the calls of the source. No stated cut-off is given here; in the data, active = GI50 up to about 1.1 µM and inactive = higher.

Legend:
Experiment in all cases: NCI anticancer screen, dose series, 48 h
[1] = test system: Hs-578T
[2] = test system: SN12C
[3] = test system: RXF 393
[4] = test system: NCI-H23
[5] = test system: NCI-H226
[6] = test system: PC-3
[7] = test system: NCI/ADR-RES
[8] = test system: SNB-75
[9] = test system: SR
[10] = test system: 786-0
[11] = test system: HT-29
[12] = test system: UO-31
[13] = test system: IGROV-1
[14] = test system: OVCAR-4
[15] = test system: HCT-15
[16] = test system: MDA-MB-231
[17] = test system: MCF7
[18] = test system: NCI-H522
[19] = test system: SF-268
[20] = test system: UACC-257
[21] = test system: SF-295
[22] = test system: SK-MEL-28
[23] = test system: HCC 2998
[24] = test system: COLO 205
[25] = test system: LOX IMVI
[26] = test system: OVCAR-3
[27] = test system: OVCAR-8
[28] = test system: U-251
[29] = test system: EKVX
[30] = test system: SK-MEL-5
[31] = test system: CCRF-CEM
[32] = test system: HOP-62
[33] = test system: A549
[34] = test system: ACHN
[35] = test system: RPMI-8226
[36] = test system: TK-10
[37] = test system: OVCAR-5
[38] = test system: Malme-3M
[39] = test system: KM12
[40] = test system: A498
[41] = test system: MDA-MB-435
[42] = test system: DU-145
[43] = test system: HCT-116
[44] = test system: HOP-92
[45] = test system: SF-539
[46] = test system: CAKI-1
[47] = test system: K562
[48] = test system: NCI-H460
[49] = test system: HL-60
[50] = test system: SW-620
[51] = test system: MOLT-4
[52] = test system: BT-549
[53] = test system: MDA-N
[54] = test system: SNB-19
[55] = test system: UACC-62
[56] = test system: T47D
[57] = test system: SK-MEL-2
[58] = test system: SK-OV-3
[59] = test system: M14

CC(C)(C)OC(=O)NC(Cc1ccc(O)cn1)C(=O)O (stereo not drawn)
GI50 [1]: > 100 µM (inactive)
GI50 [2]: > 100 µM (inactive)
GI50 [3]: > 100 µM (inactive)
GI50 [4]: > 100 µM (inactive)
GI50 [5]: > 100 µM (inactive)
GI50 [6]: > 100 µM (inactive)
GI50 [7]: > 100 µM (inactive)
GI50 [8]: > 100 µM (inactive)
GI50 [9]: > 100 µM (inactive)
GI50 [10]: > 100 µM (inactive)
GI50 [11]: > 100 µM (inactive)
GI50 [12]: > 100 µM (inactive)
GI50 [13]: > 100 µM (inactive)
GI50 [14]: > 100 µM (inactive)
GI50 [15]: > 100 µM
GI50 [16]: > 100 µM (inactive)
GI50 [17]: > 100 µM (inactive)
GI50 [18]: > 100 µM (inactive)
GI50 [19]: > 100 µM (inactive)
GI50 [20]: > 100 µM (inactive)
GI50 [21]: > 100 µM (inactive)
GI50 [22]: > 100 µM (inactive)
GI50 [23]: > 100 µM (inactive)
GI50 [24]: > 100 µM (inactive)
GI50 [25]: > 100 µM (inactive)
GI50 [26]: > 100 µM (inactive)
GI50 [27]: > 100 µM (inactive)
GI50 [28]: > 100 µM (inactive)
GI50 [29]: > 100 µM (inactive)
GI50 [30]: > 100 µM (inactive)
GI50 [31]: > 10 µM (inactive)
GI50 [32]: > 100 µM (inactive)
GI50 [33]: > 100 µM (inactive)
GI50 [34]: > 100 µM (inactive)
GI50 [35]: > 100 µM (inactive)
GI50 [36]: > 100 µM (inactive)
GI50 [37]: > 100 µM (inactive)
GI50 [38]: > 100 µM (inactive)
GI50 [39]: > 100 µM (inactive)
GI50 [40]: > 100 µM (inactive)
GI50 [41]: > 100 µM (inactive)
GI50 [42]: > 100 µM (inactive)
GI50 [43]: > 100 µM (inactive)
GI50 [44]: > 100 µM (inactive)
GI50 [45]: > 100 µM (inactive)
GI50 [46]: > 100 µM (inactive)
GI50 [47]: > 100 µM (inactive)
GI50 [48]: > 100 µM (inactive)
GI50 [49]: > 100 µM (inactive)
GI50 [50]: > 100 µM (inactive)
GI50 [51]: > 100 µM (inactive)
GI50 [52]: > 100 µM (inactive)
GI50 [53]: > 100 µM (inactive)
GI50 [54]: > 100 µM (inactive)

CO[C@H]1/C=C/O[C@@]2(C)Oc3c(C)c(O)c4c(O)c(c(/C=N/N5CCN(C)CC5)c(O)c4c3C2=O)NC(=O)/C(C)=C\C=C\[C@H](C)[C@H](O)[C@@H](C)[C@@H](O)[C@@H](C)[C@H](OC(C)=O)[C@@H]1C [RIFAMPIN]
GI50 [2]: > 100 µM (inactive)
GI50 [3]: > 100 µM (inactive)
GI50 [6]: 81.5 µM (inactive)
GI50 [7]: > 100 µM (inactive)
GI50 [9]: 3.32 µM (inactive)
GI50 [10]: > 100 µM (inactive)
GI50 [55]: > 100 µM (inactive)
GI50 [11]: 60 µM (inactive)
GI50 [12]: 68.4 µM (inactive)
GI50 [13]: 73.6 µM (inactive)
GI50 [56]: > 100 µM (inactive)
GI50 [16]: 24.5 µM (inactive)
GI50 [57]: > 100 µM (inactive)
GI50 [17]: > 100 µM (inactive)
GI50 [58]: > 100 µM (inactive)
GI50 [20]: 80.5 µM (inactive)
GI50 [22]: > 100 µM (inactive)
GI50 [23]: 72.6 µM (inactive)
GI50 [24]: 82.6 µM (inactive)
GI50 [26]: 24.8 µM (inactive)
GI50 [27]: > 100 µM (inactive)
GI50 [29]: > 100 µM (inactive)
GI50 [30]: 61.4 µM (inactive)
GI50 [31]: 26.2 µM (inactive)
GI50 [32]: > 100 µM (inactive)
GI50 [33]: > 100 µM (inactive)
GI50 [34]: > 100 µM (inactive)
GI50 [35]: 52.1 µM (inactive)
GI50 [36]: > 100 µM (inactive)
GI50 [37]: > 100 µM (inactive)
GI50 [38]: 37.5 µM (inactive)
GI50 [39]: > 100 µM (inactive)
GI50 [40]: > 100 µM (inactive)
GI50 [41]: > 100 µM (inactive)
GI50 [42]: > 100 µM (inactive)
GI50 [43]: 97.7 µM (inactive)
GI50 [46]: > 100 µM (inactive)
GI50 [47]: > 100 µM (inactive)
GI50 [59]: 62.1 µM (inactive)
GI50 [48]: 45.8 µM (inactive)
GI50 [50]: > 100 µM (inactive)
GI50 [51]: 68.7 µM (inactive)
GI50 [52]: 62.8 µM (inactive)
GI50 [53]: > 100 µM (inactive)
